{"source": "paper PMC7272617", "about": "(Scientific Reports, 2020)", "key": {"[1]": {"test_system": "Vibrio cholera O1 Inaba DMST 16261", "details": "MHB, 37 °C, 24 h"}, "[2]": {"test_system": "all Gram-negative strains", "experiment": "Mean MIC and therapeutic index, Gram-negative strains", "type": "cell-based", "details": "7 Gram-negative strains of Table 3"}, "[3]": {"test_system": "MDR P. aeruginosa clinical isolate No.12"}, "P. aeruginosa ATCC 27853 [4]": {"test_system": "P. aeruginosa ATCC 27853", "experiment": "Transmission electron microscopy (TEM)", "type": "cell-based, Pseudomonas aeruginosa", "details": "0.5 × MIC, 2 h; result in words", "experimental": "The bacterial cells were treated and prepared with the same conditions as previously described in SEM[8]. The bacterial pellets were washed twice with PBS and post-fixed with 1% osmium tetroxide in PBS for 2 h, after overnight fixing with 2.5% glutaraldehyde. The fixed bacterial cells were washed twice with PBS, followed by dehydration for 15 min in a graded ethanol series (50%, 70%, 90%, and 100%). After placing in absolute acetone for 20 min, these samples were transferred to a mixture of absolute acetone and epoxy resin (1:1 and 1:3) for 1 h each, followed by transfer to pure epoxy resin and held overnight. Ultrathin sections were cut with a glass knife on an ultramicrotome, and post-stained with uranyl acetate and lead citrate. Specimens were observed using a transmission electron microscope (Hitachi HT7700, Japan)."}, "[5]": {"test_system": "MDR P. aeruginosa clinical isolate No.6", "details": "MDR clinical isolate No.6, 24 h"}, "[6]": {"test_system": "MDR P. aeruginosa clinical isolate No.8", "details": "MDR clinical isolate No.8, 24 h"}, "[7]": {"test_system": "MDR P. aeruginosa clinical isolate No.3", "details": "MDR clinical isolate No.3, 24 h"}, "P. aeruginosa ATCC 27853 [8]": {"test_system": "P. aeruginosa ATCC 27853", "details": "ATCC 27853, 24 h"}, "P. aeruginosa ATCC 27853 [9]": {"test_system": "P. aeruginosa ATCC 27853", "experiment": "Salt sensitivity: MIC in the presence of physiological salts", "type": "cell-based, Pseudomonas aeruginosa", "experimental": "The antimicrobial activity of the peptides was determined against both Gram-positive and -negative bacteria including 14 MDR P. aeruginosa clinical isolates from Bhumibol Adulyadej Hospital (Tables 1 and 3). The minimal inhibitory concentration (MIC) of each peptide was measured according to a modification of the National Committee for Clinical Laboratory Standards (NCCLS) broth microdilution method as previously described. Briefly, bacterial cells in mid-log phase were cultured in Müeller-Hinton broth (MHB) and then diluted to 10^7 CFU/ml. Fifty microliters of 2-fold serially diluted peptides, with concentrations ranging from 0.98 to 250 μg/ml in 0.01% (vol/vol) acetic acid and 0.2% (wt/vol) bovine serum albumin (BSA, Sigma), were added to each well of sterile 96-well plates, followed by 50 μl of bacterial solution. Plates were incubated at 37 °C for 24 h, and MICs were defined as the lowest concentration of peptide that prevented visible turbidity. Cultures without peptides and uninoculated MHB were employed as positive and negative controls, respectively. Colony count assays were performed to determine the minimal bactericidal concentrations (MBCs) for determination of time-killing activity. As previously described, a 50 μl aliquot from each non-turbid well identified in the MIC determination experiment was spread on agar plates. MBCs were defined as the lowest concentration of peptides where no colony growth was observed on agar plates after 24 h incubation at 37 °C.\nTo test the effect of salts on the antibacterial activity of PA-13, the mid-logarithmic phase (10^7 CFU/ml) of P. aeruginosa ATCC 27853 was exposed to different concentrations of PA-13 in the presence of different physiological salts: 150 mM NaCl; 4.5 mM KCl; 1 mM MgCl2; 6 µM NH4Cl; 8 µM ZnCl2; 4 µM FeCl3; […][22]. After these treatments, the MICs were determined as described above."}}, "note": "Where a SMILES comes first, the peptide text is derived from it.", "data": [{"smiles": "CC[C@H](C)[C@H](NC(=O)[C@H](CCCNC(=N)N)NC(=O)[C@H](CCCCN)NC(=O)[C@H](C)NC(=O)[C@@H](NC(=O)[C@@H](N)CCCCN)[C@@H](C)CC)C(=O)N[C@@H](Cc1c[nH]c2ccccc12)C(=O)N[C@@H](CCCCN)C(=O)N[C@H](C(=O)N[C@@H](CC(C)C)C(=O)N[C@@H](CCCNC(=N)N)C(=O)N[C@@H](CCCNC(=N)N)C(=O)N[C@@H](CCCNC(=N)N)C(N)=O)[C@@H](C)CC", "note": "[PA-13] (H-KIAKRIWKILRRR-NH2; N-terminus assumed)", "values": [{"measurement": "MIC", "setting": "[1]", "value": 31.25, "unit": "µg/mL"}, {"measurement": "GM (Gr.− strains): geometric mean of MIC values from all Gram-negative strains", "setting": "[2]", "value": 15.90, "unit": "µg/mL"}, {"measurement": "MIC", "setting": "[3]", "value": 3.91, "unit": "µg/mL"}, {"measurement": "membrane integrity and intracellular alterations (TEM)", "setting": "P. aeruginosa ATCC 27853 [4]", "value": "disrupted cell membrane with visible pores and leakage of cellular contents"}, {"measurement": "MIC", "setting": "[5]", "value": 7.81, "unit": "µg/mL"}, {"measurement": "MIC", "setting": "[6]", "value": 7.81, "unit": "µg/mL"}, {"measurement": "MIC", "setting": "[7]", "value": 7.81, "unit": "µg/mL"}, {"measurement": "MBC", "setting": "P. aeruginosa ATCC 27853 [8]", "value": 7.81, "unit": "µg/mL"}, {"measurement": "MIC in the presence of FeCl3", "setting": "P. aeruginosa ATCC 27853 [9]; 4 µM FeCl3, unit inferred", "value": 3.91, "unit": "µg/mL"}, {"measurement": "MIC in the presence of NH4Cl", "setting": "P. aeruginosa ATCC 27853 [9]; 6 µM NH4Cl, unit inferred", "value": 3.91, "unit": "µg/mL"}, {"measurement": "MIC in the presence of ZnCl2", "setting": "P. aeruginosa ATCC 27853 [9]; 8 µM ZnCl2, unit inferred", "value": 3.91, "unit": "µg/mL"}, {"measurement": "MIC in the presence of MgCl2", "setting": "P. aeruginosa ATCC 27853 [9]; 1 mM MgCl2, unit inferred", "value": 31.2, "unit": "µg/mL"}, {"measurement": "increase of MIC in the presence of K+", "setting": "P. aeruginosa ATCC 27853 [9]; 4.5 mM KCl versus control", "value": 2, "unit": "fold"}, {"measurement": "MIC in the presence of KCl", "setting": "P. aeruginosa ATCC 27853 [9]; 4.5 mM KCl, unit inferred", "value": 7.81, "unit": "µg/mL"}, {"measurement": "MIC in the presence of NaCl", "setting": "P. aeruginosa ATCC 27853 [9]; 150 mM NaCl, unit inferred", "value": 31.2, "unit": "µg/mL"}, {"measurement": "MIC in the presence of CaCl2", "setting": "P. aeruginosa ATCC 27853 [9]; […] CaCl2, unit inferred", "value": 3.91, "unit": "µg/mL"}, {"measurement": "MIC, control", "setting": "P. aeruginosa ATCC 27853 [9]; absence of physiological salts, unit inferred", "value": 3.91, "unit": "µg/mL"}]}]}
